Data on eight compounds can be found in DBAASP.

Among the test systems are Escherichia coli MG1655; Escherichia coli BL21AI; Staphylococcus aureus; Klebsiella pneumoniae; Vibrio cholerae N16961; Escherichia coli D31.
What all share (test): ≥ marks a high value that may be exact or a test limit, other limits are often not marked, values filed in µg/mL are converted to µM
Assay [1] concerns Micrococcus luteus ATCC 49732.
The subject of assay [2] is Aeromonas hydrophila ATCC 35654.
For assay [3], the system named is Staphylococcus aureus ATCC 25923.
Assay [4] deals with Escherichia coli ATCC 25922.
For assay [5], the system named is Pseudomonas aeruginosa PAO1.
In assay [6] the test system is Pseudomonas aeruginosa PA7.
Assay [7] deals with Staphylococcus aureus NCTC 8325.
Assay [8] concerns Escherichia coli KCTC 1682.
Assay [9] relates to Pseudomonas aeruginosa KCTC 1637.
For assay [10], the system named is Staphylococcus aureus KCTC 1621.
Assay [11] deals with Bacillus subtilis KCTC 3068.
Assay [12] has as its system Proteus vulgaris KCTC 2433.
Assay [13] relates to Staphylococcus epidermidis ATCC 12228.
Assay [14] concerns Enterococcus faecalis KCTC 2011.
Assay [15] deals with Staphylococcus epidermidis KCTC 1917.
The subject of assay [16] is Salmonella typhimurium KCTC 1926.
Assay [17] deals with Enterococcus faecalis PCM 2673.
Assay [18] deals with Candida albicans ATCC 10231.
In assay [19] the test system is Pseudomonas aeruginosa ATCC 9027.
Assay [20] relates to Pseudomonas aeruginosa NBRC 13275.
The test system of assay [21] is Staphylococcus aureus NBRC 13276.
Assay [22] relates to Escherichia coli DH5alpha.
For assay [23], the system named is Micrococcus luteus DSM 1790.
Assay [24] deals with Staphylococcus epidermidis ATCC 14990.
Assay [25] concerns Pseudomonas aeruginosa ATCC 10145.
Assay [26] relates to Staphylococcus aureus ATCC 27660.
Assay [27] deals with Salmonella enterica subsp. enterica serovar Typhimurium ATCC 700931.

SMILES strings stand for the structures. In brackets after ≈: the same amount, converted by molar mass. Several values for one entry are separate records, joined by “and”; a condition that tells them apart may be missing. Equal entries are not always repeated.

What is called MIC is the least concentration at which growth counts as inhibited. Low values mean greater potency, high ones weaker potency.

For the compound `CC[C@H](C)[C@H](NC(=O)[C@H](CC(C)C)NC(=O)[C@H](CCC(N)=O)NC(=O)[C@@H](NC(=O)[C@H](CCCCN)NC(=O)[C@@H](NC(=O)[C@H](CS)NC(=O)[C@H](CCCCN)NC(=O)[C@@H](N)CCCN=C(N)N)C(C)C)C(C)C)C(=O)N[C@@H](CCCCN)C(=O)N[C@@H](CC(N)=O)C(=O)NCC(=O)N[C@@H](CCCN=C(N)N)C(=O)N[C@@H](CCC(N)=O)C(=O)N[C@H](C(=O)N[C@H](C(=O)N[C@@H](C)C(=O)N[C@@H](Cc1ccccc1)C(N)=O)[C@@H](C)O)C(C)C` [RKCVKVQLIKNGRQVTAF], the MIC in assay [1] is 7.2 µM (≈ 15 µg/mL); in assay [2] it was 20 µM (≈ 41.8 µg/mL); in assay [3], over 20 µM; in [4] it was 12 µM (≈ 25.1 µg/mL).
For `CC[C@H](C)[C@H](NC(=O)[C@@H](N)CCCCN)C(=O)N1CCC[C@H]1C(=O)N1CCC[C@H]1C(=O)N[C@H](C(=O)N[C@H](C(=O)N[C@@H](CCCCN)C(=O)N[C@@H](CC(=O)O)C(=O)N[C@H](C(=O)N[C@@H](CC(C)C)C(=O)N[C@@H](CCCCN)C(=O)N[C@@H](CCCCN)C(=O)N[C@H](C(=O)N[C@@H](C)C(=O)N[C@@H](CCCCN)C(=O)NCC(=O)N[C@H](C(=O)N[C@@H](CC(C)C)C(=O)N[C@@H](CO)C(=O)N[C@@H](C)C(=O)N[C@H](C(=O)N[C@@H](C)C(=O)NCC(=O)N[C@@H](C)C(=O)N[C@@H](CC(C)C)C(=O)N[C@@H](CO)C(=O)O)C(C)C)C(C)C)C(C)C)[C@@H](C)O)C(C)C)C(C)C` [KIPPVVKDTLKKVAKGVLSAVAGALS], the MIC in assay [5] is 16 µM (≈ 41.4 µg/mL); with Escherichia coli MG1655 it was 2 µM (≈ 5.18 µg/mL); in assay [6], 16 µM (≈ 41.4 µg/mL); in assay [7], at least 181 µM.
As to `CC[C@H](C)[C@H](NC(=O)CN)C(=O)NCC(=O)N[C@@H](CCCCN)C(=O)N[C@@H](Cc1c[nH]c2ccccc12)C(=O)N[C@@H](CC(C)C)C(=O)N[C@@H](Cc1cnc[nH]1)C(=O)N[C@@H](CO)C(=O)N[C@@H](C)C(=O)N[C@@H](CCCCN)C(=O)N[C@@H](CCCCN)C(=O)N[C@@H](Cc1ccccc1)C(=O)NCC(=O)N[C@@H](CCCCN)C(=O)N[C@@H](C)C(=O)N[C@@H](Cc1ccccc1)C(=O)N[C@H](C(=O)NCC(=O)N[C@@H](CCC(=O)O)C(=O)N[C@H](C(=O)N[C@@H](CCSC)C(=O)N[C@@H](CC(N)=O)C(=O)N[C@@H](CO)C(=O)O)[C@@H](C)CC)C(C)C` [GIGKWLHSAKKFGKAFVGEIMNS], the MIC in [8] is at least 32 µM; in [9], at least 32 µM; in [10], 22.6 µM (≈ 56.7 µg/mL); in [11], 8 µM (≈ 20 µg/mL); in assay [12] it was at least 45.3 µM; in assay [4], 8 µM and 20 µM. Also, the minimum inhibitory concentration (MIC) in assay [13] was 20 µM and 40 µM; in [14] it was 16 µM (≈ 40.1 µg/mL); in assay [15] it was 16 µM (≈ 40.1 µg/mL); in [16], 22.6 µM (≈ 56.7 µg/mL).
As for `CC[C@H](C)[C@H](NC(=O)[C@H](CCCCN)NC(=O)[C@H](CCCCN)NC(=O)[C@@H](NC(=O)[C@@H](NC(=O)[C@H](CC(=O)O)NC(=O)[C@H](Cc1ccccc1)NC(=O)[C@H](CC(C)C)NC(=O)CN)[C@@H](C)CC)[C@@H](C)CC)C(=O)N[C@@H](C)C(=O)N[C@@H](CCC(=O)O)C(=O)N[C@@H](C)C(=O)N[C@@H](Cc1ccccc1)C(N)=O` [GLFDIIKKIAEAF], the minimal inhibitory concentration (MIC) in [17] is at least 43.7 µM; in assay [18], 21.8 µM (≈ 32 µg/mL); in assay [19], over 350 µM; in assay [3], 21.8 µM (≈ 32 µg/mL); in assay [4] it was 43.7 µM (≈ 64 µg/mL).
For `CC[C@H](C)[C@H](NC(=O)[C@H](CCC(=O)O)NC(=O)CNC(=O)[C@@H](NC(=O)[C@H](Cc1ccccc1)NC(=O)[C@H](C)NC(=O)[C@H](CCCCN)NC(=O)CNC(=O)[C@H](Cc1ccccc1)NC(=O)[C@H](CCCCN)NC(=O)[C@H](CCCCN)NC(=O)[C@H](C)NC(=O)[C@H](CO)NC(=O)[C@H](Cc1cnc[nH]1)NC(=O)[C@H](CC(C)C)NC(=O)[C@H](Cc1ccccc1)NC(=O)[C@H](CCCCN)NC(C)=O)C(C)C)C(=O)N[C@@H](CCSC)C(=O)N[C@@H](CC(N)=O)C(=O)N[C@@H](CO)C(N)=O` [KFLHSAKKFGKAFVGEIMNS], the minimum inhibitory concentration (MIC) in assay [20] is at least 200 µM; in assay [21] it was at least 400 µM; in assay [22], at least 200 µM.
Consider `CC[C@H](C)[C@H](NC(=O)[C@H](CCCN=C(N)N)NC(=O)[C@H](CCCN=C(N)N)NC(=O)[C@@H]1CCCN1C(=O)[C@@H]1CCCN1C(=O)[C@H](Cc1cnc[nH]1)NC(=O)[C@@H]1CCCN1C(=O)[C@H](CCCN=C(N)N)NC(=O)[C@@H]1CCCN1C(=O)[C@H](CC(C)C)NC(=O)[C@H](Cc1ccc(O)cc1)NC(=O)[C@@H]1CCCN1C(=O)[C@@H]1CCCN1C(=O)[C@H](CCCCN)NC(=O)[C@H](CC(=O)O)NC(=O)[C@@H](N)C(C)C)C(=O)N[C@@H](Cc1ccc(O)cc1)C(=O)N[C@@H](CC(N)=O)C(=O)O` [VDKPPYLPRPHPPRRIYN], for which the MIC stood at 28.2 µM (≈ 62.5 µg/mL) in the assay on Escherichia coli BL21AI and 14.1 µM (≈ 31.3 µg/mL) in [23].
Regarding `CC[C@H](C)[C@@H]1NC(=O)CNC(=O)[C@@H](NC(=O)[C@H](CC(C)C)NC(=O)[C@@H](NC(=O)[C@H](CO)NC(=O)[C@@H]2CCCN2C(=O)[C@H](CC(C)C)NC(=O)[C@@H](NC(=O)[C@H](CCCCN)NC(=O)[C@H](C)NC(=O)CNC(=O)[C@@H](NC(=O)[C@H](CCCCN)NC(=O)[C@H](CC(C)C)NC(=O)[C@H](CC(C)C)NC(=O)[C@H](C)NC(=O)CNC(=O)[C@H](CC(C)C)NC(=O)[C@@H](N)Cc2ccccc2)[C@@H](C)CC)C(C)C)C(C)C)CSSC[C@@H](C(N)=O)NC(=O)[C@H](CCCCN)NC(=O)[C@H](CCCCN)NC(=O)[C@H](Cc2ccccc2)NC1=O` [FLGALLKIGAKVLPSVLCGIFKKC], the values for the minimal inhibitory concentration (MIC) against Staphylococcus aureus, in the assay with Klebsiella pneumoniae and in the assay on Vibrio cholerae N16961 were 4 µM (≈ 10.1 µg/mL), 15 µM (≈ 37.7 µg/mL) and 4.5 µM (≈ 11.3 µg/mL), respectively.
Take `CC[C@H](C)[C@H](NC(=O)[C@H](C)N)C(=O)N[C@@H](Cc1c[nH]c2ccccc12)C(=O)N[C@@H](CCCCN)C(=O)N[C@@H](CCCCN)C(=O)N[C@H](C(=O)N[C@H](C(=O)N[C@@H](CCCCN)C(=O)N[C@@H](CCCCN)C(=O)N[C@H](C(=O)N[C@H](C(=O)N[C@@H](CCCCN)C(=O)N[C@@H](CO)C(=O)N[C@@H](C)C(=O)N[C@@H](CCCCN)C(=O)N[C@@H](CCCCN)C(=O)N[C@H](C(=O)NCC(=O)O)[C@@H](C)CC)[C@@H](C)CC)[C@@H](C)CC)[C@@H](C)CC)[C@@H](C)CC` [AIWKKIIKKIIKSAKKIG]: the minimal inhibitory concentration (MIC) is 0.94 µM (≈ 1.94 µg/mL) against Escherichia coli D31; 0.94 µM (≈ 1.94 µg/mL) in assay [24]; 1.88 µM (≈ 3.89 µg/mL) in assay [25]; 1.88 µM (≈ 3.89 µg/mL) in assay [26]; 1.88 µM (≈ 3.89 µg/mL) in assay [27].
